The record followed here is patent US8242118B2, “Arylsulfonamide derivatives for use as CCR3 antagonists in the treatment of inflammatory and immunological disorders” (Axikin Pharmaceuticals Inc., priority 2001, dated 2012).

pIC50: −log10 of the molar value. Structures can show the parent of a compound that is named as a salt.

The pIC50 is −log10 of the IC50, conventionally taken in molar units.

In this test the target is T1, Human CCR3 (Homo sapiens, UniProt P51677).
T1 construct: The cloned CCR3 cDNA was constructed with pcDNA3 vector and transfected into a IC562 cell line; expressed in transfected cells
T1 sequence (P51677 1-355): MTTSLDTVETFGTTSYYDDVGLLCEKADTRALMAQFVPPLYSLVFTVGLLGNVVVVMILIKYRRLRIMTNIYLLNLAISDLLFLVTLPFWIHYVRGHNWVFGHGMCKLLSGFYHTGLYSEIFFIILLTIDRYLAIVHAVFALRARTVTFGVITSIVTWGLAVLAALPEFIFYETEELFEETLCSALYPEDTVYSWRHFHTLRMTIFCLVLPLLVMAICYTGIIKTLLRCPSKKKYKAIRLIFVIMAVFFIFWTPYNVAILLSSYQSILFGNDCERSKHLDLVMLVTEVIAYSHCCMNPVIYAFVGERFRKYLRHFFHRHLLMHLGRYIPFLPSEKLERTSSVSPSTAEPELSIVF
Put plainly: Receptor binding assay (RBA), [125I]-eotaxin. The conditions noted are these: human CCR3-transformed K562 cells, 0.1 nM [125I]-eotaxin; compounds of about 40 to 90% purity; read-out: Activity grade RBA (IC50 class). A digest of the protocol:
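Butyrate-pretreated (5 mM, 20-24 h) CCR3-transfected K562 cells incubated 1 h at room temperature with compound and 0.1 nM final [125I]-eotaxin in HEPES pH 7.6 buffer; bound radioactivity counted after filtration. Non-specific binding with 500 nM unlabeled eotaxin; IC50 from inhibition curve.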

Regarding `Cl.O=S(=O)(c1cc(Br)ccc1Oc1cc(Cl)cc(Cl)c1)N1CCNCC1` [Example 1-57], the pIC50 was > 6.00.

In the case of `Cc1cc(Oc2cc(Cl)cc(Cl)c2)c(S(=O)(=O)N2CCNCC2)cc1[N+](=O)[O-].Cl` [Example 1-45], the pIC50 is > 6.00.

`Cl.O=[N+]([O-])c1ccc(Oc2cc(Cl)cc(Cl)c2Cl)c(S(=O)(=O)N2CCNCC2)c1` [Example 1-86]: the pIC50 is > 6.00.

For `O=[N+]([O-])c1ccc(Oc2ccc(Cl)cc2)c(S(=O)(=O)N2CCNCC2)c1` [Example 1-22], the pIC50 is < 5.00.

With `Cc1cc(C)cc(Oc2cc3cc[nH]c3cc2S(=O)(=O)N2CCNCC2)c1` [Example 11-1, 5-(3,5-dimethylphenoxy)-6-(1-piperazinylsulfonyl)-1H-indole trifluoroacetate], the pIC50 was < 5.00.

For `Cc1ccc(C(C)C)c(Oc2ccc([N+](=O)[O-])cc2S(=O)(=O)N2CCNCC2)c1.Cl` [Example 1-66], the pIC50 is 5.00 to 6.00.

In the case of `CC1CN(S(=O)(=O)c2cc([N+](=O)[O-])ccc2Oc2cc(Cl)cc(Cl)c2)CC(C)N1` (centres unmarked) [Example 1-93], the pIC50 is > 6.00.

Take `Cc1cc(C)cc(Oc2ccc(N)cc2S(=O)(=O)N2CCN(C(=O)OC(C)(C)C)CC2)c1` [Example 5-1, tert-butyl 4-{[5-amino-2-(3,5-dimethyl-phenoxy)phenyl]sulfonyl}-1-piperazinecarboxylate]: the pIC50 was < 5.00.

Turning to `Cl.Cl.Cl.Nc1ccc(Oc2ccc([N+](=O)[O-])cc2S(=O)(=O)N2CCNCC2)cc1` [Example 1-13], the pIC50 is < 5.00.

As to `Cc1cc(C)cc(Oc2ccc(O)cc2S(=O)(=O)N2CCNCC2)c1` [Example 6-1, 4-(3,5-dimethylphenoxy)-3-(1-piperazinylsulfonyl)phenol hydrochloride], the pIC50 was < 5.00.

Regarding `Cc1ccccc1Oc1ccc([N+](=O)[O-])cc1S(=O)(=O)N1CCNCC1.Cl` [Example 1-12], the pIC50 is 5.00 to 6.00.

`Cc1cc(C)cc(Oc2ccccc2S(=O)(=O)N2CCNCC2)c1.Cl` [Example 1-41]: the pIC50 is < 5.00.

On to `Cl.O=[N+]([O-])c1ccc(Oc2c(F)c(F)cc(F)c2F)c(S(=O)(=O)N2CCNCC2)c1` [Example 1-74], for which the pIC50 is > 6.00.

With `Cc1cc(Oc2ccc([N+](=O)[O-])cc2S(=O)(=O)N2CCNCC2)c(C(C)C)cc1Cl` [Example 1-81], the pIC50 was < 5.00.

`Cl.N#Cc1cccc(Oc2ccc([N+](=O)[O-])cc2S(=O)(=O)N2CCNCC2)c1` [Example 1-10]: the pIC50 was 5.00 to 6.00.

On to `Cl.O=[N+]([O-])c1ccc(Oc2cc(F)cc(F)c2)c(S(=O)(=O)N2CCNCC2)c1` [Example 1-4], for which the pIC50 is > 6.00.

Consider `O=[N+]([O-])c1ccc(Oc2ccc(F)cc2)c(S(=O)(=O)N2CCNCC2)c1` [Example 1-20], for which the pIC50 was < 5.00.
